Source: PubChem BioAssay AID330 (DTP/NCI, 2004)
Several values for one entry are separate records, joined by “and”; a condition that tells them apart may be missing. Identical values can stand only once. Toxic doses and inconclusive results are not listed. The calls were made as follows: active = survival T/C of 150% or more; inactive = T/C below 125% in these data. Square brackets hold non-standard residues; d marks the D form. Peptide text beside a SMILES is read from it. Ac5c = NC1(C(=O)O)CCCC1

System: P388 leukemia ip, CD2F1 mice, survival T/C
Assay: NCI In Vivo Anticancer Drug Screen. Data for tumor model P388 Leukemia (intraperitoneal) in CD2F1 (CDF1) mice
Settings: endpoint: median survival time, higher = longer survival
How it was run: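 Mice carrying the transplanted tumor received test compound or vehicle. Survival was recorded in each group, and the value is the treated-group measurement divided by that of the vehicle-treated control group.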

[1] = dose: 50.0 mg/kg/injection, schedule: Q01DX009 (ip), vehicle: saline
[2] = dose: 100.0 mg/kg/injection, schedule: Q01DX009 (ip), vehicle: saline
[3] = dose: 200.0 mg/kg/injection, schedule: Q01DX009 (ip), vehicle: saline
[4] = dose: 6.25 mg/kg/injection, schedule: Q01DX005 (ip), vehicle: saline with Tween-80
[5] = dose: 12.5 mg/kg/injection, schedule: Q01DX005 (ip), vehicle: saline with Tween-80
[6] = dose: 50.0 mg/kg/injection, schedule: Q01DX005 (ip), vehicle: Klucel (hydroxypropylcellulose) (HPC)
[7] = dose: 100.0 mg/kg/injection, schedule: Q01DX005 (ip), vehicle: Klucel (hydroxypropylcellulose) (HPC)
[8] = dose: 200.0 mg/kg/injection, schedule: Q01DX005 (ip), vehicle: Klucel (hydroxypropylcellulose) (HPC)
[9] = dose: 50.0 mg/kg/injection, schedule: Q01DX009 (ip), vehicle: saline with Tween-80
[10] = dose: 100.0 mg/kg/injection, schedule: Q01DX009 (ip), vehicle: saline with Tween-80
[11] = dose: 200.0 mg/kg/injection, schedule: Q01DX009 (ip), vehicle: saline with Tween-80
[12] = dose: 50.0 mg/kg/injection, schedule: Q01DX005 (ip), vehicle: saline with Tween-80
[13] = dose: 100.0 mg/kg/injection, schedule: Q01DX005 (ip), vehicle: saline with Tween-80
[14] = dose: 200.0 mg/kg/injection, schedule: Q01DX005 (ip), vehicle: saline with Tween-80
[15] = dose: 50.0 mg/kg/injection, schedule: Q01DX009 (ip), vehicle: Klucel (hydroxypropylcellulose) (HPC)
[16] = dose: 100.0 mg/kg/injection, schedule: Q01DX009 (ip), vehicle: Klucel (hydroxypropylcellulose) (HPC)
[17] = dose: 200.0 mg/kg/injection, schedule: Q01DX009 (ip), vehicle: Klucel (hydroxypropylcellulose) (HPC)

Measured: T/C

O=c1ccn(C2OC(CO)C(O)C2O)c(=O)[nH]1 (stereo not given)
inactive: dose: 25.0 mg/kg/injection, schedule: Q01DX009 (ip), vehicle: water 100 % of control | dose: 32.0 mg/kg/injection, schedule: Q01DX009 (ip), vehicle: Klucel (hydroxypropylcellulose) (HPC) 90 % of control | dose: 32.0 mg/kg/injection, schedule: Q01DX009 (ip), vehicle: saline 86 % of control and 87 % of control | [1] 108 % of control | dose: 50.0 mg/kg/injection, schedule: Q01DX009 (ip), vehicle: water 100 % of control | dose: 64.0 mg/kg/injection, schedule: Q01DX009 (ip), vehicle: Klucel (hydroxypropylcellulose) (HPC) 90 % of control | [2] 94 % of control and 115 % of control | dose: 100.0 mg/kg/injection, schedule: Q01DX009 (ip), vehicle: water 106 % of control | dose: 128.0 mg/kg/injection, schedule: Q01DX009 (ip), vehicle: Klucel (hydroxypropylcellulose) (HPC) 88 % of control | [3] 94 % of control and 112 % of control | dose: 200.0 mg/kg/injection, schedule: Q01DX009 (ip), vehicle: water 106 % of control | dose: 256.0 mg/kg/injection, schedule: Q01DX009 (ip), vehicle: Klucel (hydroxypropylcellulose) (HPC) 98 % of control | dose: 400.0 mg/kg/injection, schedule: Q01DX009 (ip), vehicle: saline 103 % of control and 100 % of control | dose: 400.0 mg/kg/injection, schedule: Q01DX009 (ip), vehicle: water 108 % of control | dose: 512.0 mg/kg/injection, schedule: Q01DX009 (ip), vehicle: Klucel (hydroxypropylcellulose) (HPC) 98 % of control | dose: 800.0 mg/kg/injection, schedule: Q01DX009 (ip), vehicle: saline 98 % of control | dose: 1024.0 mg/kg/injection, schedule: Q01DX009 (ip), vehicle: saline 100 % of control and 89 % of control | dose: 1600.0 mg/kg/injection, schedule: Q01DX009 (ip), vehicle: saline 98 % of control

CC1CN=C(c2ccc(NC(=O)c3ccc(NC(=O)c4ccc(C5=NCC(C)N5)cc4)cc3)cc2)N1 (stereo not given)
inactive: [4] 119 % of control and 123 % of control | [5] 110 % of control

O=C(N/N=C/c1ccccc1Cl)C(=O)Nc1cccc(C(F)(F)F)c1
inactive: [6] 95 % of control | [7] 96 % of control | [8] 99 % of control

CC(=O)OCC1OC(Sc2nnc(-c3ccccc3)c(-c3ccccc3)n2)C(OC(C)=O)C(OC(C)=O)C1OC(C)=O (stereo not given)
inactive: [9] 107 % of control | [10] 98 % of control | [11] 100 % of control

CCCSC(=O)Nc1ccc(Cc2ccc(NC(=O)SCCC)cc2)cc1
inactive: dose: 60.0 mg/kg/injection, schedule: Q01DX005 (ip), vehicle: saline with Tween-80 90 % of control | dose: 120.0 mg/kg/injection, schedule: Q01DX005 (ip), vehicle: saline with Tween-80 87 % of control | dose: 240.0 mg/kg/injection, schedule: Q01DX005 (ip), vehicle: saline with Tween-80 99 % of control

Clc1ccccc1CSCc1c(CSCc2ccccc2Cl)c(CSCc2ccccc2Cl)c(CSCc2ccccc2Cl)c(CSCc2ccccc2Cl)c1CSCc1ccccc1Cl
inactive: [9] 102 % of control | [10] 100 % of control | [11] 100 % of control

OCCN1CCN(CCCOC2=Nc3ccccc3O/C2=C/c2ccccc2)CC1
inactive: dose: 25.0 mg/kg/injection, schedule: Q04DX003 (ip), vehicle: saline 100 % of control | dose: 50.0 mg/kg/injection, schedule: Q04DX003 (ip), vehicle: saline 100 % of control | dose: 100.0 mg/kg/injection, schedule: Q04DX003 (ip), vehicle: saline 98 % of control and 101 % of control

N#CC(C(=O)CCC(=O)C(C#N)c1c(Cl)cccc1Cl)c1c(Cl)cccc1Cl (stereo not given)
inactive: [12] 100 % of control | [13] 98 % of control | [14] 98 % of control

O=C1CN(c2cccc(C(F)(F)F)c2)C(=O)CN1/N=C/c1ccc(O)c(O)c1
inactive: [4] 100 % of control | [5] 97 % of control | dose: 25.0 mg/kg/injection, schedule: Q01DX005 (ip), vehicle: saline with Tween-80 96 % of control

COc1ccc2c3c(cnc2c1)C(=O)CCC3
inactive: [12] 104 % of control | [13] 101 % of control | [14] 96 % of control

CN1C(=O)C(n2[nH]c(=O)n(-c3ccc(Cl)cc3)c2=O)C(=O)N(C)C1=O
inactive: [15] 100 % of control | [16] 100 % of control | [17] 97 % of control

CC(=O)OC1CC2(C)C(c3ccoc3)CC3OC32C2(C)C(=O)C(O)=C3C(C)(C)C(=O)C=CC3(C)C12 (stereo not given)
inactive: dose: 3.0 mg/kg/injection, schedule: Q01DX009 (ip), vehicle: Klucel (hydroxypropylcellulose) (HPC) 96 % of control | dose: 6.0 mg/kg/injection, schedule: Q01DX009 (ip), vehicle: Klucel (hydroxypropylcellulose) (HPC) 100 % of control | dose: 12.0 mg/kg/injection, schedule: Q01DX009 (ip), vehicle: Klucel (hydroxypropylcellulose) (HPC) 100 % of control | dose: 24.0 mg/kg/injection, schedule: Q01DX009 (ip), vehicle: Klucel (hydroxypropylcellulose) (HPC) 99 % of control

NCC(=O)NCC(=O)NC1(C(=O)O)CCCC1 (H-Gly-Gly-[Ac5c]-OH)
inactive: dose: 50.0 mg/kg/injection, schedule: Q01DX005 (ip), vehicle: saline 102 % of control and 103 % of control | dose: 100.0 mg/kg/injection, schedule: Q01DX005 (ip), vehicle: saline 110 % of control and 113 % of control | dose: 200.0 mg/kg/injection, schedule: Q01DX005 (ip), vehicle: saline 110 % of control | dose: 400.0 mg/kg/injection, schedule: Q01DX005 (ip), vehicle: saline 116 % of control and 87 % of control

CC1OC(C)(C2CC2)OC1C (stereo not given)
inactive: dose: 100.0 mg/kg/injection, schedule: Q04DX003 (ip), vehicle: Klucel (hydroxypropylcellulose) (HPC) 95 % of control | dose: 200.0 mg/kg/injection, schedule: Q04DX003 (ip), vehicle: Klucel (hydroxypropylcellulose) (HPC) 100 % of control

CCCCCCC(=O)Nc1ncc([N+](=O)[O-])s1
inactive: [15] 106 % of control | [16] 106 % of control | [17] 100 % of control

O=C(O)C1CSC(c2ccccc2O)N1 (stereo not given)
inactive: [1] 90 % of control | [2] 96 % of control | [3] 90 % of control

O=N[O-].[Co].[NH2-].[NH2-].[NH2-].[NH2-].[NH2-]
inactive: dose: 12.5 mg/kg/injection, schedule: Q01DX009 (ip), vehicle: saline 90 % of control | dose: 25.0 mg/kg/injection, schedule: Q01DX009 (ip), vehicle: saline 95 % of control | [1] 95 % of control

c1ccc2nc(N3CCCC3)c(N3CCCCC3)nc2c1
inactive: [6] 102 % of control | [7] 94 % of control | [8] 100 % of control

NC(=O)Cc1nc(O)cs1
inactive: dose: 60.0 mg/kg/injection, schedule: Q01DX005 (ip), vehicle: Klucel (hydroxypropylcellulose) (HPC) 102 % of control | dose: 120.0 mg/kg/injection, schedule: Q01DX005 (ip), vehicle: Klucel (hydroxypropylcellulose) (HPC) 101 % of control | dose: 240.0 mg/kg/injection, schedule: Q01DX005 (ip), vehicle: Klucel (hydroxypropylcellulose) (HPC) 109 % of control

O=C(CCSC1=NCCCN1)c1ccc(F)cc1
inactive: dose: 12.5 mg/kg/injection, schedule: Q01DX009 (ip), vehicle: saline with Tween-80 111 % of control | dose: 25.0 mg/kg/injection, schedule: Q01DX009 (ip), vehicle: saline with Tween-80 118 % of control | [9] 118 % of control and 120 % of control
